{"source": "patent US9730442B2", "about": "“Use of 4-phenylbutyric acid for improving the tolerance of plants to harmful biological organisms” (INSTITUT DE RECHERCHE POUR LE DÉVELOPPEMENT (IRD), priority 2012, dated 2017)", "key": {"[1]": {"tested_on": "hypersensitive cell death induced by Pseudomonas syringae pv. tomato (Pst, avirulent strain DC3000::AvrRpt2)", "experiment": "Hypersensitive cell death induced by Pst infiltration into Arabidopsis thaliana leaves", "assay_type": "in vivo", "conditions": "4-PBA 1 mM co-infiltrated with Pst DC3000::AvrRpt2 at 10^7 cfu/ml; six days post-inoculation; FIG. 2", "procedure": "(§1) A stock solution of 4-PBA (10 mM) was prepared extemporaneously by dissolving powder in sterile distilled water. In order to allow complete dissolution of the 4-PBA, the solution was heated at 50° C. for 10 minutes.\nThe bacteria (Pst, avirulent strain DC3000::AvrRpt2) were cultured overnight in a rich nutritive medium (King B). After sedimentation by centrifugation, said bacteria were washed with sterile distilled water before being resuspended at a concentration of 10^7 cfu/ml. The resuspending of the cells is carried out either in sterile distilled water, or in a solution of 4-PBA at 1 mM. These suspensions were then infiltrated into the leaves of the Arabidopsis thaliana rosette. The macroscopic symptoms were monitored over a period of six days post-inoculation."}, "[2]": {"tested_on": "tobacco leaves (plant cells)", "experiment": "Concentration range infiltrated into tobacco leaves, macroscopic symptoms", "assay_type": "in vivo, Nicotiana tabacum", "conditions": "4-PBA at 0.5, 1, 2.5 and 5 mM infiltrated into tobacco leaves; 48 hours post-infiltration; FIG. 4A", "procedure": "(§2) The concentration range presented in FIG. 4A was produced by infiltration into tobacco leaves of 4-PBA solutions at 0.5, 1, 2.5 and 5 mM. The macroscopic symptoms were evaluated 48 hours post-infiltration. Samples were also harvested at the times indicated in FIG. 4B and treated as described above so as to be analyzed by real-time quantitative PCR. Primers specific for all of the nine genes encoding BiP proteins were designed for this purpose."}, "[3]": {"tested_on": "hypersensitive cell death induced by Xanthomonas campestris pv. malvacearum (Xcm, race 18)", "experiment": "Hypersensitive cell death induced by Xcm infiltration into cotton plant cotyledons", "assay_type": "in vivo, Gossypium hirsutum", "conditions": "4-PBA 2 mM co-infiltrated with Xcm race 18 at 10^8 cfu/ml; four days after inoculation; FIG. 1", "procedure": "as §1\nThe Xanthomonas campestris pv. malvacearum bacteria (Xcm, race 18) were cultured overnight in a rich nutritive medium (King B). After sedimentation by centrifugation, said bacteria were washed with sterile distilled water before being resuspended at a concentration of 10^8 cfu/ml. The resuspending of the cells is carried out either in sterile distilled water, or in a solution of 4-PBA at 2 mM. These two types of suspensions were infiltrated into cotton plant (Gossypium hirsutum) cotyledons on each side of the central vein for comparison."}, "[4]": {"tested_on": "nonhost hypersensitive cell death induced by Pseudomonas syringae pv. tomato", "experiment": "Nonhost hypersensitive cell death in tobacco interacting with Pseudomonas syringae pv. tomato (data not presented)", "assay_type": "in vivo", "procedure": "(§3) The effect of 4-PBA on cell death of hypersensitive nature was tested on several pathosystems, including those presented in FIGS. 1 & 2, namely Gossypium hirsutum/Xanthomonas campestris pv. malvacearum and Arabidopsis thaliana/Pseudomonas syringae. pv. tomato, respectively. […] The latter data concern hypersensitive cell death induced in tobacco by an elicitor of fungal origin, cryptogein, and nonhost hypersensitive cell death in tobacco interacting with the bacterium Pseudomonas syringae pv. tomato."}, "[5]": {"tested_on": "hypersensitive cell death induced by cryptogein", "experiment": "Hypersensitive cell death induced in tobacco by cryptogein (data not shown)", "assay_type": "in vivo", "procedure": "as §3"}, "[6]": {"tested_on": "genes encoding BiP proteins", "experiment": "Real-time quantitative PCR of BiP genes in tobacco leaves", "assay_type": "in vivo, Nicotiana tabacum", "conditions": "4-PBA infiltrated into tobacco leaves; FIG. 4B", "procedure": "as §2"}, "[7]": {"tested_on": "Xcm race 20", "experiment": "In vitro bacterial growth in King B liquid medium, absorbance at 600 nm", "assay_type": "cell-based, Xanthomonas campestris pv. malvacearum", "conditions": "4-PBA 1 mM in King B liquid medium; approximately 16 hours, 30° C.; FIG. 5", "procedure": "The effect of 4-PBA on phytopathogenic bacteria was tested in vitro on the bacterial strain Xcm race 20. The strain was cultured in King B liquid medium in the presence or absence of 4-PBA. The 4-PBA solution was prepared extemporaneously as described above. The nutritive medium was inoculated either using glycerol stocks, or using bacterial colonies freshly cultured in solid medium. The nutritive medium was then supplemented with the 4-PBA solution in order to achieve a final concentration of 1 mM (final volume of 10 ml). […] The tubes were then incubated overnight (approximately 16 hours) with gentle shaking at 30° C. The bacterial growth was then measured by nephelometry by measuring the absorbance of an aliquot of the bacterial cultures at 600 nm. This experiment was repeated three times. Each experiment contained one technical triplicate per condition, i.e. condition with 4-PBA and condition without 4-PBA."}, "[8]": {"tested_on": "genes encoding BiP1,2, BiP3, CNX1 and CRT1", "experiment": "Real-time quantitative PCR of endoplasmic reticulum chaperone genes in A. thaliana leaves", "assay_type": "in vivo, Arabidopsis thaliana", "conditions": "44 hours post-inoculation, FIG. 3", "procedure": "The 4-PBA solutions used in the experiments described hereinafter were prepared as described in Example 1.\nThe infection with Pst (avirulent strain DC3000::AvrRpt2) was carried out under the same conditions as those described above. An additional condition was added, corresponding to the infiltration of a solution of 4-PBA (1 mM) alone into the A. thaliana leaves.\nSamples were harvested 44 hours post-inoculation, frozen in liquid nitrogen and then stored at −80° C. until total RNA extraction. The total RNA was reverse transcribed so as to synthesize cDNAs. These cDNAs were used as a template in real-time quantitative PCR experiments. Primers specific for the genes encoding the binding proteins (BiP1,2 and BiP3), calnexin 1 (CNX1) and calreticulin 1 (CRT1) were designed so as to measure the expression of these genes. The expression of the genes of interest was standardized with respect to that of an actin gene. These experiments were repeated once, including one as a duplicate per experiment."}}, "data": [{"smiles": "O=C(O)CCCc1ccccc1", "note": "[4-PBA, 4-phenylbutyric acid]", "values": [{"measurement": "hypersensitive symptoms (macroscopic) in A. thaliana leaves", "setting": "[1]", "value": "capable of abolishing the hypersensitive symptoms"}, {"measurement": "toxicity to plant cells (macroscopic symptoms)", "setting": "[2]", "value": "not toxic to the plant cells"}, {"measurement": "hypersensitive symptoms (macroscopic) in cotton plant cotyledonary leaves", "setting": "[3]", "value": "strongly represses the hypersensitive symptoms"}, {"measurement": "nonhost hypersensitive cell death in tobacco with Pseudomonas syringae pv. tomato", "setting": "[4]", "value": "confirm the anti-cell death properties"}, {"measurement": "hypersensitive cell death induced by cryptogein in tobacco", "setting": "[5]", "value": "repress hypersensitive cell death"}, {"measurement": "BiP gene expression in tobacco", "setting": "[6]", "value": "capable of inducing BiP gene expression in tobacco"}, {"measurement": "bacterial growth (absorbance at 600 nm)", "setting": "[7]", "value": "strongly inhibits the growth"}, {"measurement": "expression of genes encoding chaperone proteins (BiP1,2, BiP3, CNX1, CRT1)", "setting": "[8]; 4-PBA 1 mM infiltrated alone, standardized to actin", "value": "significantly induce the expression of genes encoding chaperone proteins"}, {"measurement": "expression of BiP1,2, CNX1 and CRT1 genes, 4-PBA combined with Pst infection", "setting": "[8]; 4-PBA 1 mM plus Pst", "value": "synergistic effect"}]}]}
